Laboratory results as given in US12612409B2, “Pyrrolopyrimidines as CFTR potentiators” (Cystic Fibrosis Foundation, priority 2016, dated 2026).

Columns and labels:
[1] = target: T1, recombinant F508del V470 CFTR in Fischer rat thyroid (FRT) cells (Homo sapiens, UniProt P13569, DEL508-508); test: FRT ion flux assay of F508del CFTR potentiation; type: cell-based; conditions: FRT cells expressing F508del V470 CFTR, forskolin 20 uM, 27° C. pre-incubation
T1 construct: expressed in transfected cells
Method in brief: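 FRT cells co-expressing F508del V470 CFTR and halide-sensitive YFP, temperature-corrected at 27° C for 16-24 h, then treated 30 min with compound plus 20 uM forskolin. Iodide addition quenches YFP, read after ~21 s; ratio scaled to DMSO (0%) and positive control potentiator (100%).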

[2] = target: T2, CFTR in F508del/F508del primary CF hBE cells (Homo sapiens, UniProt P13569, DEL508-508); test: Ussing chamber electrophysiology assay of CFTR potentiation in F508del/F508del CF bronchial epithelial cells (27° C.); type: cell-based
T2 construct: Primary cystic fibrosis human bronchial epithelial (CF hBE) cells were expanded and cultured; endogenous in cells; host or cells: primary CF human bronchial epithelial cells, genotype F508del/F508del
Method in brief: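 Well-differentiated primary CF hBE cells (>30 days air/liquid interface) in Ussing chambers, HEPES saline both sides, voltage clamped to zero. Amiloride 30 uM, forskolin 10 uM, four rising compound concentrations, then CFTRinh-172 20 uM added at 20-25 min intervals. Short-circuit current scaled to DMSO (0%) and a positive control potentiator maximum (100%).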

T1 sequence (P13569 with tags, fused parts or gaps DEL508-508): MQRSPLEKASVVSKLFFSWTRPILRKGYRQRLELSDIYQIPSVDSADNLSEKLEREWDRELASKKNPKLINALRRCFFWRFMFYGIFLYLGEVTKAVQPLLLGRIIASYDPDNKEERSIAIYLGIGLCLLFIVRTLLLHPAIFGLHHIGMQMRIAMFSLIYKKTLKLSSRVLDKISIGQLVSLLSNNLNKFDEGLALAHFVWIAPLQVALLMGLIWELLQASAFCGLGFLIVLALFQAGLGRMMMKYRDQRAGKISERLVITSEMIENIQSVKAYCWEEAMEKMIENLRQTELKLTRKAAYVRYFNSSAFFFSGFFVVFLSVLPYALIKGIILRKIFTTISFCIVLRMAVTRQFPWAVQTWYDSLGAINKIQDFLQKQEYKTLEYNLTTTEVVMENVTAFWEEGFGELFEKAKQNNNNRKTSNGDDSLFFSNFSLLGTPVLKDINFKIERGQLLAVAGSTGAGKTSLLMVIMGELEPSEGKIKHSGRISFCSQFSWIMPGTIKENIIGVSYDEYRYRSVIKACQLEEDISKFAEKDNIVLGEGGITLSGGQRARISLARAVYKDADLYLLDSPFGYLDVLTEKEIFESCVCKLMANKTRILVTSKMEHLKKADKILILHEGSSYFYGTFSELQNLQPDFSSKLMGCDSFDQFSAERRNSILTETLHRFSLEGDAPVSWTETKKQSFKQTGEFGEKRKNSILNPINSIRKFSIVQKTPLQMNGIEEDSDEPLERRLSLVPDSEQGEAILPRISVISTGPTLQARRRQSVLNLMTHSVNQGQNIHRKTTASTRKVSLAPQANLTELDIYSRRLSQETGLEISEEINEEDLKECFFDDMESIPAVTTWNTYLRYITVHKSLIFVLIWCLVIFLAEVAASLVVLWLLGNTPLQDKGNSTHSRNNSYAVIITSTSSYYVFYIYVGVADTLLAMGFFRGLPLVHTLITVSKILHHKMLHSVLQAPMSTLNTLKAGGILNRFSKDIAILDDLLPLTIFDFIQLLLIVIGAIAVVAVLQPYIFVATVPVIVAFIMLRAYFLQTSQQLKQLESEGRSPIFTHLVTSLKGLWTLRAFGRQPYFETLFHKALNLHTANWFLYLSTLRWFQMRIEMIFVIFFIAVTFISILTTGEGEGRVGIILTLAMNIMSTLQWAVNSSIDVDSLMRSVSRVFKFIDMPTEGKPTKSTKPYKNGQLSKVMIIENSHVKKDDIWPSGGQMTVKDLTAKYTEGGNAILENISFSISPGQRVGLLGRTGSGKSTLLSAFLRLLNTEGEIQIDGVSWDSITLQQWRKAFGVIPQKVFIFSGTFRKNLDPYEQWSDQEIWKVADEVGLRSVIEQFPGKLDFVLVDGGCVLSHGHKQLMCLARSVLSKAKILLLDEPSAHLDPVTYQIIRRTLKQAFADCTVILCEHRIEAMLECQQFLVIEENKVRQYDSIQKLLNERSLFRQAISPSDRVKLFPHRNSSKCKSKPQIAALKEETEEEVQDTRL
T2 sequence (P13569 with tags, fused parts or gaps DEL508-508): as above

SMILES	EC50 [1] [nM]	EC50 [2] [nM]
CC(c1cn(-c2ccc(F)cc2F)nn1)n1c(C#N)c(-c2ccc(OC3CC3)nc2)c2c(N)ncnc21 (single isomer, unassigned; enantiomer 2) [Example 321, 4-Amino-5-[6-(cyclopropyloxy)pyridin-3-yl]-7-{1-[1-(2,4-difluorophenyl)-1H-1,2,3-triazol-4-yl]ethyl}-7H-pyrrolo[2,3-d]pyrimidine-6-carbonitrile, enantiomer 2]	359	141
CCC(c1cnn(-c2ccccc2F)c1)n1c(C#N)c(-c2cnc(C(F)(F)F)nc2)c2c(N)ncnc21 (single isomer, unassigned) [Example 4, 4-Amino-7-{1-[1-(2-fluorophenyl)-1H-pyrazol-4-yl]propyl}-5-[2-(trifluoromethyl)pyrimidin-5-yl]-7H-pyrrolo[2,3-d] pyrimidine-6-carbonitrile]	0.61	0.56
CC(c1cn(-c2ccccc2F)nn1)n1cc(C2CC2)c2c(N)ncnc21 (single isomer, unassigned) [Example 108, 5-Cyclopropyl-7-{1-[1-(2-fluorophenyl)-1H-1,2,3-triazol-4-yl]ethyl}-7H-pyrrolo[2,3-d]pyrimidin-4-amine]	1200	706
CCC(c1cn(-c2ccccc2F)nn1)n1cc(-c2cnc(C(F)(F)F)nc2)c2c(N)ncnc21 (single isomer, unassigned; enantiomer 2) [Example 138, 7-{1-[1-(2-Fluorophenyl)-1H-1,2,3-triazol-4-yl]propyl}-5-[2-(trifluoromethyl)pyrimidin-5-yl]-7H-pyrrolo[2,3-d]pyrimidin-4-amine, enantiomer 2]	266	261
Nc1ncnc2c1c(-c1ccc3c(c1)CCO3)cn2Cc1cn(-c2ccccc2F)nn1 [Example 74, 5-(2,3-Dihydro-1-benzofuran-5-yl)-7-{[1-(2-fluorophenyl)-1H-1,2,3-triazol-4-yl]methyl}-7H-pyrrolo[2,3-d]pyrimidin-4-amine]	328	59
COc1ncc(-c2c(C#N)n(C(C)c3cc(-c4ccccc4F)no3)c3ncnc(N)c23)cn1 (single isomer, unassigned) [Example 15, 4-amino-7-{1-[3-(2-fluorophenyl)-1,2-oxazol-5-yl]ethyl}-5-(2-methoxypyrimidin-5-yl)-7H-pyrrolo[2,3-d]pyrimidine-6-carbonitrile]	7.22	7
CC(c1cnc(-c2ccccc2F)[nH]1)n1cc(-c2ccc(-n3nccn3)cc2)c2c(N)ncnc21 (stereo not shown) [Example 70, 7-{1-[2-(2-Fluorophenyl)-1H-imidazol-5-yl]ethyl}-5-[4-(2H-1,2,3-triazol-2-yl)phenyl]-7H-pyrrolo[2,3-d]pyrimidin-4-amine]	110	30.6
CCC(c1cnn(-c2ccccc2F)c1)n1cc(-c2cnc(C(F)(F)F)nc2)c2c(N)ncnc21 (single isomer, unassigned; enantiomer 2) [Example 176, 7-{(1-[1-(2-Fluorophenyl)-1H-pyrazol-4-yl]propyl}-5-[2-(trifluoromethyl)pyrimidin-5-yl]-7H-pyrrolo[2,3-d]pyrimidin-4-amine, enantiomer 2]	204	106
CC(c1cnc(-c2ccccc2F)[nH]1)n1cc(-c2cc[nH]n2)c2c(N)ncnc21 (stereo not shown) [Example 60, 7-{1-[2-(2-Fluorophenyl)-1H-imidazol-5-yl]ethyl}-5-(1H-pyrazol-3-yl)-7H-pyrrolo[2,3-d]pyrimidin-4-amine]	45.3	80
CC(=O)c1ccc(-c2cn(C(C)c3cn(-c4ccccc4F)nn3)c3ncnc(N)c23)cc1 (stereo not shown) [Example 96, 1-[4-(4-Amino-7-{1-[1-(2-fluorophenyl)-1H-1,2,3-triazol-4-yl]ethyl}-7H-pyrrolo[2,3-d]pyrimidin-5-yl)phenyl]ethanone]	98.6	133
CC(c1cn(-c2ccccc2F)nn1)n1cc(-c2ccc(C#N)c(F)c2)c2c(N)ncnc21 (stereo not shown) [Example 239, 4-(4-Amino-7-{1-[1-(2-fluorophenyl)-1H-1,2,3-triazol-4-yl)ethyl]-7H-pyrrolo[2,3-d]pyrimidin-5-yl}-2-fluorobenzonitrile]	94.4	83
Nc1ncnc2c1c(-c1ccc(Cl)cc1)cn2Cc1cc(C2CC2)no1 [Example 280, 5-(4-Chlorophenyl)-7-[(3-cyclopropyl-1,2-oxazol-5-yl)methyl]-7H-pyrrolo[2,3-d]pyrimidin-4-amine]	2670	127
Cc1ccccc1-c1cc(C(C)n2cc(-c3ccc(Cl)cc3)c3c(N)ncnc32)on1 (stereo not shown) [Example 266, 5-(4-Chlorophenyl)-7-{1-[3-(2-methylphenyl)-1,2-oxazol-5-yl]ethyl}-7H-pyrrolo[2,3-d]pyrimidin-4-amine]	138	253
CCC(c1cn(-c2ccccc2)nn1)n1cc(-c2cncnc2OC)c2c(N)ncnc21 (stereo not shown) [Example 248, 5-(4-Methoxypyrimidin-5-yl)-7-{1-[1-phenyl-1H-1,2,3-triazol-4-yl]propyl}-7H-pyrrolo[2,3-d]pyrimidin-4-amine]	25.9	55.4

Further molecules by falling EC50 [1], results first:

EC50 [1] [nM]	EC50 [2] [nM]	SMILES
404	55	Cc1cccc(-n2cc(C(C)n3cc(-c4ccc(Cl)cc4)c4c(N)ncnc43)nn2)c1 (stereo not shown) [Example 208, 5-(4-Chlorophenyl)-7-{1-[1-(3-methylphenyl)-1H-1,2,3-triazol-4-yl]ethyl}-7H-pyrrolo[2,3-d]pyrimidin-4-amine]
343	147	CC(c1cc(-c2ccccc2F)no1)n1cc(-c2ccc(Cl)cc2)c2c(N)ncnc21 (stereo not shown) [Example 258, 5-(4-Chlorophenyl)-7-{1-[3-(2-fluorophenyl)-1,2-oxazol-5-yl]ethyl}-7H-pyrrolo[2,3-d]pyrimidin-4-amine]
154	453	COc1ncncc1-c1cn(C(c2cn(-c3ccccc3F)nn2)C2CC2)c2ncnc(N)c12 (single isomer, unassigned; enantiomer 2) [Example 300, (−) 7-{Cyclopropyl[1-(2-fluorophenyl)-1H-1,2,3-triazol-4-yl]methyl}-5-(4-methoxypyrimidin-5-yl)-7H-pyrrolo[2,3-d]pyrimidin-4-amine, enantiomer 2]
109	25.9	CCC(c1cn(-c2ccccc2F)nn1)n1cc(-c2ccc(Cl)cc2)c2c(N)ncnc21 (stereo not shown) [Example 211, 5-(4-Chlorophenyl)-7-{1-[1-(2-fluorophenyl)-1H-1,2,3-triazol-4-yl]propyl}-7H-pyrrolo[2,3-d]pyrimidin-4-amine]
102	55	COc1ccc(-c2cn(C(C)c3cn(-c4ccccc4F)nn3)c3ncnc(N)c23)c(OC)c1 (stereo not shown) [Example 87, 5-(2,4-Dimethoxyphenyl)-7-{1-[1-(2-fluorophenyl)-1H-1,2,3-triazol-4-yl]ethyl}-7H-pyrrolo[2,3-d]pyrimidin-4-amine]
100	478	COc1ncncc1-c1cn(Cc2cn(-c3ccccc3F)nn2)c2ncnc(N)c12 [Example 200, 7-{[1-(2-Fluorophenyl)-1H-1,2,3-triazol-4-yl]methyl}-5-(4-methoxypyrimidin-5-yl)-7H-pyrrolo[2,3-d]pyrimidin-4-amine]
77.6	70.3	CC(c1cn(-c2ccccc2F)nn1)n1c(C#N)c(-c2cnc(C(F)(F)F)nc2)c2c(N)ncnc21 (single isomer, unassigned) [Example 10, 4-Amino-7-{1-[1-(2-fluorophenyl)-1H-1,2,3-triazol-4-yl]ethyl}-5-[2-(trifluoromethyl)pyrimidin-5-yl]-7H-pyrrolo[2,3-d]pyrimidine-6-carbonitrile]
60.6	133	CC(c1cn(-c2ccccc2F)nn1)n1cc(C2CC2)c2c(N)ncnc21 (stereo not shown) [Example 238, 5-Cyclopropyl-7-{1-[1-(2-fluorophenyl)-1H-1,2,3-triazol-4-yl]ethyl}-7H-pyrrolo[2,3-d]pyrimidin-4-amine]
12.2	27.7	COc1nc(C(F)(F)F)ncc1-c1cn(C(C)c2cn(-c3ccccc3F)nn2)c2ncnc(N)c12 (stereo not shown) [Example 249, 7-{1-[1-(2-Fluorophenyl)-1H-1,2,3-triazol-4-yl]ethyl}-5-[4-methoxy-2-(trifluoromethyl)pyrimidin-5-yl]-7H-pyrrolo[2,3-d]pyrimidin-4-amine]
11.7	3.87	CCC(c1cn(-c2cc(F)ccc2F)nn1)n1cc(-c2cc(F)cnc2OC)c2c(N)ncnc21 (single isomer, unassigned; enantiomer 1) [Example 171, 7-{1-[1-(2,5-Difluorophenyl)-1H-1,2,3-triazol-4-yl]propyl}-5-(5-fluoro-2-methoxypyridin-3-yl)-7H-pyrrolo[2,3-d]pyrimidin-4-amine, enantiomer 1]
7.69	7.73	CC(c1cnn(-c2ccccc2F)c1)n1c(C#N)c(-c2cnc(C(F)(F)F)nc2)c2c(N)ncnc21 (single isomer, unassigned) [Example 5, 4-Amino-7-(1-(1-(2-fluorophenyl)-1H-pyrazol-4-yl)ethyl)-5-(2-(trifluoromethyl)pyrimidin-5-yl)-7H-pyrrolo[2,3-d] pyrimidine-6-carbonitrile]
0.55	1.66	CC(c1cnn(-c2ccccc2F)c1)n1c(C#N)c(-c2cnc(C(F)F)nc2)c2c(N)ncnc21 (single isomer, unassigned) [Example 1, 4-Amino-5-[2-(difluoromethyl)pyrimidin-5-yl]-7-{1-[1-(2-fluorophenyl)-1H-pyrazol-4-yl]ethyl}-7H-pyrrolo[2,3-d]pyrimidine-6-carbonitrile]
